Assay [1] relates to PrP^Sc. The conditions noted are these: for binding to PrP^Sc compared among peptide reagents: pH 4.
For assay [2], the target named is PrP^Sc (Mus musculus, UniProt P04925).
In assay [3] the test system is PrP^Sc.
Assay [4] concerns PrP^Sc. The source holds these as a separate data set.

Five substances from US20090099343A1 (priority 2005, published 2009) can be followed below.

Sequence of PrP^Sc (Mus musculus, UniProt P04925) (P04925 23-230 limits assumed): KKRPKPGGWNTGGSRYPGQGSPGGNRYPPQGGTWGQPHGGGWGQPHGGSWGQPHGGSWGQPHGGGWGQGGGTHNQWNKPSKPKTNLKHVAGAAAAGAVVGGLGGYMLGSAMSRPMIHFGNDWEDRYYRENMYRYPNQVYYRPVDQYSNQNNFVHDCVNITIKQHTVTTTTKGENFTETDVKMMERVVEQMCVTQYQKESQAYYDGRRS

In the case of (GGG)KKKKKKKK [SEQ ID NO:85], in assay [1], the “pH of optimal binding to PrP^Sc” value stood at 8 and the “binding to PrP^Sc compared among peptide reagents” value is on record as “bound equally well”.

(GGG)KKRPKPGG [SEQ ID NO:68]: the “binding to PrP^Sc in infected mouse brain homogenate (FIG. 4, lane 5)” value in assay [2] is listed as “strong binding”. Also, in assay [1], the “pH of optimal binding to PrP^Sc” value amounted to 8 and the “binding to PrP^Sc compared among peptide reagents” value is given as “bound equally well”.

Consider (GGG)KKRPKPGGWNTGG [SEQ ID NO:67], for which, in assay [3], the “PrP^Sc eluted from peptide reagent” value is reported as “eluted all”. In addition, the “PrP^Sc dissociated from peptide reagent” value in assay [4] is reported as “virtually all”.

For (GGG)QWNKPSKPKTN [SEQ ID NO:14], in assay [1], the “pH of optimal binding to PrP^Sc” value turned out to be 8 and the “binding to PrP^Sc compared among peptide reagents” value is “bound equally well”.

On to “GGGQWNKPSK*KTN, wherein * is N-(cyclopropylmethyl)glycine [SEQ ID NO:111]”, for which, in assay [4], the “PrP^Sc dissociated from peptide reagent with NaCl” value is “little was dissociated” and the “tightness of PrP^Sc binding to peptide reagent” value is “bound most tightly”.
